“Also recorded” adds a separate entry of the source.
Experiments:
APP/PS1 mutant mice = assay: HFS-induced hippocampal LTP in WT and APP/PS1 mice after in vivo treatment; design: species or system mouse; details: Rhy oral 50 mg·kg−1·day−1 for 3 weeks
Description: APP/PS1 double-transgenic mice were obtained from Jackson Laboratory (B6C3-Tg[APPswe, PSEN1dE9]85Dbo/J)^66. These mice were generated by incorporating a human/murine APP construct bearing the Swedish double mutation and the exon-9-deleted PSEN1 mutation (APPswe+PSEN1/dE9). APP transgenic mice (Tg2576) expressing a double mutant of human AβPP (Lys^670→Asn^670, Met^671→Leu^671) were also used^31. Both sexes were used for experiments, and all mice used in this study were produced by the Animal Care Facility of The Hong Kong University of Science and Technology. The genotype was confirmed by polymerase chain reaction analysis of tail biopsies. Four to five mice of the same sex were housed in a cage with food and water ad libitum with a 12-hour light/dark cycle.
To investigate the effect of blocking EphA4 signaling by KYL peptide in AD mice, 4-5-month-old AD transgenic mice were implanted with Alzet mini-osmotic pumps, model 1004, pumping its contents at 0.11 μL/h for 28 days. Pumps were loaded with either 0.23 μg/μL KYL peptide (17 μg) or vehicle solvent in artificial cerebrospinal fluid (CSF). The mini-osmotic pumps were adjusted intracerebroventricularly in the right hemisphere. EphA4 in the CA1 regions of APP/PS1 mice was knocked down by injecting vesicular stomatitis virus glycoprotein G-pseudotyped lentiviral particles with pFUGW-shEphA4 bilaterally into the corresponding regions as described previously^58.
For LTP recordings, mouse brains were immediately dissected after sacrifice and soaked in ice-cold 95% O2/5% CO2 (aCSF)^58. Brain slices (300 μm thick) were prepared using a vibrating tissue slicer (HM650V; Thermo), and soaked in oxygenated buffer for 2 h at 32° C. […] For treatment with EphA4 inhibitors, the slices were pretreated with peptides or chemicals for 1 h before application of Aβ. fEPSPs were recorded using a MED64 multichannel recording system, and the data were collected from the dendritic layer of area CA1 at a sampling rate of 10 kHz. For each slice, the baseline stimulus intensity was set at the level that elicited ˜50% of the maximum fEPSP response determined according to the input-output curve. […] The magnitude of LTP was quantified as a percentage change in the fEPSP slope (10%-90%) taken during the 60-min interval after LTP induction.
WT and APP/PS1 mutant (Tg) mice were orally administered with corylin ([…]) by daily gavage for 3-4 weeks prior to LTP measurements. LTP induced by 3 trains of HFS (100 Hz for 1 s delivered 30 s apart) in the CA1 region of the SC pathway of the hippocampus was measured. The magnitude of LTP was quantified as the percentage change in the fEPSP slope (10-90%) taken during the 60-min interval after LTP induction.

[1] = system: EphA4-dependent growth cone collapse in hippocampal neurons; assay: EphA4-dependent (ephrin-A1-stimulated) growth cone collapse assay; type: cell-based, rat; details: cultured hippocampal neurons
Experimental: Ephrin-A1-Fc was pre-clustered with goat anti-human Fc antibody (1:4.5)^24 and incubated at room temperature for 60 min before use. The growth cone collapse assay was performed in hippocampal neurons with ephrin-A1 0.1 μg/mL as described previously^61.
For EphA4 clustering, neurons were stained with anti-EphA4 and anti-Tau-1 antibodies. For the growth cone collapse assay, neurons were stained with Alexa Fluor 555-conjugated phalloidin (Molecular Probes) for filamentous actin and anti-Tau-1 antibody for axons. Collapsed growth cones were scored in a double-blinded manner. The experiments were repeated at least 3 times, and >50 neurons were analyzed for each experiment. Data are presented as mean±SEM.
To screen for small molecule EphA4 inhibitors, the inventors performed a molecular docking analysis using a small molecule library. […] Their ability in inhibiting EphA4 inhibiting the EphA4-dependent growth cone collapse using cultured hippocampal neurons was performed.

CC[C@H]1CN2CC[C@]3(C(=O)Nc4ccccc43)[C@@H]2C[C@@H]1/C(=C\OC)C(=O)OC [Rhy, methyl (7β,16E,20α)-16-(methoxymethylene)-2-oxocorynoxan-17-oate]
mean fEPSP slope, last 10 min after LTP induction (APP/PS1 mutant mice; APP/PS1 (Tg) mice, Tg control 147.6±3.5%): 198.1±8.9%
mean fEPSP slope, last 10 min after LTP induction (APP/PS1 mutant mice; WT mice, WT control 194.0±7.0%): 180.5±7.7%
ephrin-A1-stimulated growth cone collapse [1]: reduced; also recorded: inhibited ephrin-A1-stimulated growth cone collapse

Source: US9629830B2, “EphA4 inhibitors as neuroprotective agents” (The Hong Kong University of Science and Technology, priority 2013, dated 2017)
